Patent publication US11700767B2, “Condensed cyclic compound, composition including the condensed cyclic compound, and organic light-emitting device including the composition” (SAMSUNG ELECTRONICS CO., LTD., priority 2017, dated 2023)

Experiment: Measurement of solubility in methyl benzoate (Evaluation Example 1)
Format: physicochemical
Details: for solubility in an organic solvent, as compared with host-c: qualitative statement referring to Table 1; for Solubility: solvent methyl benzoate, room temperature, ultrasonic irradiation, visual check
Protocol: 50 milligrams (mg) of Compound 1-1 and 450 mg of methyl benzoate (solvent) were added to a colorless sample bottle, the mixture was irradiated with ultrasonic waves at room temperature for 5 minutes, and the presence or absence of Compound 1-1 was visually confirmed. […] If Compound 1-1 remained, a small amount of the solvent was added, the irradiation with ultrasonic waves was repeated, and an amount of the solvent was measured until Compound 1-1 was completely dissolved. The solubility was calculated from an amount of the solvent finally used. The solubility values of Compound 1-2 and host-c were calculated in the same manner.

Row | solubility in an organic solvent, as compared with host-c | Solubility | Compound
1 | high solubility | 4 weight % | c1ccc(-c2cccc(-c3cccc(-c4ccc5c(c4)c4ccccc4n5-c4ccc(-c5cccc(-c6cc(-c7cccc(-c8cccc(-c9cccc(-c%10nc(-c%11ccccc%11)nc(-c%11ccccc%11)n%10)c9)c8)c7)c7oc8ccccc8c7c6)c5)cc4)c3)c2)cc1 [Compound 1-2]
2 | high solubility | 4 weight % | c1ccc(-c2cccc(-c3cccc(-c4ccc5c(c4)c4ccccc4n5-c4ccc(-c5cccc(-c6cc(-c7ccc(-c8cccc(-c9nc(-c%10ccccc%10)nc(-c%10ccccc%10)n9)c8)cc7)c7oc8ccccc8c7c6)c5)cc4)c3)c2)cc1 [Compound 1-1]
3 | – | 0.1 weight % | c1ccc(-c2nc(-c3ccccc3)nc(-c3cc(-n4c5ccccc5c5ccccc54)cc4c3oc3ccccc34)n2)cc1 [host-c, reference compound]
